“And” between values parts separate entries of the source, which are not always exact repeats. Identical values can stand only once. Like-named read-outs stand apart in the source and are kept apart here.
Experiments:
SARS-CoV-2 [1] = format: cell-based; details: Vero cells; for Experiment 2: repeat of TCID50 assay with a dose of 50 uM / Experiment 2: Fold reduction of TCID50 / Experiment 3: repeat of TCID50 assay with a dose of 50 uM / Experiment 3: Fold reduction of TCID50: substance 50 μM; for Experiment 2: Fold reduction of TCID50: experiment 2, versus DMSO ctrl; for Experiment 3: Fold reduction of TCID50: experiment 3, versus DMSO ctrl
SARS-CoV-2 [2] = format: cell-based; details: Vero E6, 48 hrs
SARS-CoV-2 [3] = format: cell-based; details: Vero cells, different concentrations, 48 hours
SARS-CoV-2 [4] = format: cell-based; details: for effect on virus proliferation after short term incubation: versus untreated controls
[5] = target: T1, RBD to ACE2 receptor binding (Severe acute respiratory syndrome coronavirus 2, UniProt P0DTC2); test: Molecular interaction assay to detect inhibition of RBD to ACE2 receptor binding; details: for inhibitory effect on binding to ACE2 receptor: His-tagged RBD, plate bound ACE2
T1 construct: 200 ng His-tagged RBD was incubated
Method: The molecular interaction assay to detect inhibition of RBD to ACE2 receptor binding was performed as described (Gattinger et al., Allergy, 76 (2021), 878-883) with following alterations: 200 ng His-tagged RBD was incubated with various doses (100, 50, 25, 12.2, and 6 mM) of substance X for three hours at RT followed by a 3-hours overlay onto plate bound ACE2 (2 μg/ml). Bound RBD was then detected with a mouse monoclonal anti-His antibody followed by an HRP-labelled anti-mouse IgG1 antibody and detected with ABTS detected. All measurements were performed in duplicates with a variation of <5%.

## O=C(O)c1cc(O)c(O)c(O)c1 [Compound I, gallic acid]
SARS-CoV-2 [1]
  Experiment 1: TCID50 assay with 2 doses/substance, 10 μM: 3.16 × 10^5 TCID50/mL
  Experiment 2: repeat of TCID50 assay with a dose of 50 uM: 3.16 × 10^4 TCID50/mL
  Experiment 2: Fold reduction of TCID50: 9.97 fold
  Experiment 3: repeat of TCID50 assay with a dose of 50 uM: 4.44 × 10^5 TCID50/mL
  Experiment 3: Fold reduction of TCID50: 9.27 fold
  Experiment 1: TCID50 assay with 2 doses/substance, 100 μM: 3.56 × 10^5 TCID50/mL

## Oc1cc(/C=C/c2cc(O)c(O)c(O)c2)cc(O)c1O [Compound X, 3,3′,4,4′,5,5′-hexahydroxy-trans-stilbene]
SARS-CoV-2 [2]; 80 μM
  inhibition of viral replication: inhibit viral replication completely
SARS-CoV-2 [2]; 100 μM
  inhibition of viral replication: inhibit viral replication completely
SARS-CoV-2 [1]
  Experiment 1: TCID50 assay with 2 doses/substance, 10 μM: 5.88 × 10^4 TCID50/mL
  Experiment 2: repeat of TCID50 assay with a dose of 50 uM: 3.16 × 10^3 TCID50/mL
  Experiment 2: Fold reduction of TCID50: 99.7 fold
  Experiment 3: repeat of TCID50 assay with a dose of 50 uM: 1.95 × 10^3 TCID50/mL
  Experiment 3: Fold reduction of TCID50: 2107 fold and 2107.2 fold
  Experiment 1: TCID50 assay with 2 doses/substance, 100 μM: 4.64 × 10^2 TCID50/mL
SARS-CoV-2 [3]
  inhibition of virus proliferation: inhibition of virus proliferation
SARS-CoV-2 [4]; 25 μM for one hour
  ct values after short term incubation: significantly increased
SARS-CoV-2 [4]; 50 μM for one hour
  ct values after short term incubation: significantly increased
SARS-CoV-2 [4]
  effect on virus proliferation after short term incubation: could inhibit virus proliferation in a concentration dependent manner
[5]; 100 μM
  inhibition at 100 µM: 21 to 31%
[5]
  inhibitory effect on binding to ACE2 receptor: could inhibit binding to ACE2 in a concentration dependent manner

## Oc1cc(O)c2c(c1)O[C@H](c1cc(O)c(O)c(O)c1)[C@H](O)C2 [VII, (−)-epigallocatechin]
SARS-CoV-2 [1]
  Experiment 1: TCID50 assay with 2 doses/substance, 10 μM: 2.15 × 10^4 TCID50/mL
  Experiment 2: repeat of TCID50 assay with a dose of 50 uM: 2.89 × 10^5 TCID50/mL
  Experiment 2: Fold reduction of TCID50: 1.09 fold
  Experiment 3: repeat of TCID50 assay with a dose of 50 uM: 3.80 × 10^5 TCID50/mL
  Experiment 3: Fold reduction of TCID50: 7.09 fold
  Experiment 1: TCID50 assay with 2 doses/substance, 100 μM: 3.16 × 10^3 TCID50/mL

## Oc1ccc(/C=C/c2cc(O)cc(O)c2)cc1 [trihydroxystilbene, trans-3,5,4′-trihydroxystilbene]
SARS-CoV-2 [2]; 100 μM
  inhibition of viral replication: low inhibition of viral replication

## (−) epigallocatechin gallate [Compound IV]
SARS-CoV-2 [1]
  Experiment 1: TCID50 assay with 2 doses/substance, 10 μM: 3.36 × 10^4 TCID50/mL
  Experiment 2: repeat of TCID50 assay with a dose of 50 uM: 3.16 × 10^3 TCID50/mL
  Experiment 2: Fold reduction of TCID50: 99.7 fold
  Experiment 3: repeat of TCID50 assay with a dose of 50 uM: 5.12 × 10^3 TCID50/mL
  Experiment 3: Fold reduction of TCID50: 802 fold and 802.3 fold
  Experiment 1: TCID50 assay with 2 doses/substance, 100 μM: cytotoxic
SARS-CoV-2 [3]
  inhibition of virus proliferation: inhibition of virus proliferation
SARS-CoV-2 [4]
  effect on virus proliferation after short term incubation: did not have any effects on the virus proliferation
[5]
  inhibitory effect on binding to ACE2 receptor: did not show any inhibitory effects

## (−)-gallocatechin gallate [VIII]
SARS-CoV-2 [1]
  Experiment 1: TCID50 assay with 2 doses/substance, 10 μM: 2.15 × 10^5 TCID50/mL
  Experiment 2: repeat of TCID50 assay with a dose of 50 uM: 3.16 × 10^3 TCID50/mL
  Experiment 2: Fold reduction of TCID50: 99.7 fold
  Experiment 3: repeat of TCID50 assay with a dose of 50 uM: 8 × 10^5 TCID50/mL
  Experiment 3: Fold reduction of TCID50: 5.14 fold
  Experiment 1: TCID50 assay with 2 doses/substance, 100 μM: 4.64 × 10^2 TCID50/mL
SARS-CoV-2 [3]
  inhibition of virus proliferation: inhibition of virus proliferation
SARS-CoV-2 [4]
  effect on virus proliferation after short term incubation: did not have any effects on the virus proliferation
[5]
  inhibitory effect on binding to ACE2 receptor: did not show any inhibitory effects
